Reference: patent US20130023553A1, “PEGYLATED OPIOIDS WITH LOW POTENTIAL FOR ABUSE AND SIDE EFFECTS” (Nektar Therapeutics, priority 2010, published 2013)
“Also recorded” adds a separate entry of the source.

How the values were obtained:
[1] = system: Sprague-Dawley rats; test: Abuse liability: progressive ratio test in rats trained to self-administer cocaine; assay type: in vivo; settings: for reinforcing behavior, progressive ratio: all doses tested
Experimental: In the three-day rat substitution tests, rats trained to self-administer cocaine were exposed to saline or test article via intravenous bolus infusions for one hour sessions on three consecutive days.
The rate of self-administration is determined not only by reinforcing effects of drug but also by the direct effects of the drug on motor behavior. To measure reinforcing effects in a quantitative way, a procedure was utilized in which responding was determined by reinforcing effects uncontaminated with other drug effects. […] See, e.g., Griffiths R R, Brady J V, Bradford L D. Advances in Behavioral Pharmacology (Vol 2).
Under this schedule, the animal responds on the lever for delivery of test article. For each subsequent drug delivery the total number of responses emitted on the lever required for drug delivery was incremented upward using a logarithmic (base e) scale using the following equation:
Response requirement=5*e^(response increment*0.2)−5
The progressive “break point” is defined as the highest number of responses emitted by the animal to earn a single reinforcer delivery of drug or vehicle. This break point is used as a behavioral marker of how much work will be expended by an experimental subject to earn a single reinforcer delivery. The amount of work expended to earn a single reinforcer is used to compare the efficacy of drug deliveries with respect to the hedonic valence induced by the drug injection with the assumption that the subjective hedonic valence of a reinforcer determines its abuse liability.

[2] = target: T1, human mu opioid receptor (Homo sapiens, UniProt P35372); test: cell-based
T1 construct: expressed in transfected cells; host or cells: CHO cells

[3] = system: Sprague-Dawley male rats; test: Motor coordination (sedation) on the rotarod treadmill; assay type: in vivo; settings: for sedation compared to oxycodone: equianalgesic dose
Experimental: The following studies were conducted to evaluate the effect of orally administered PEG-6-O-hydroxycodone on motor coordination (i.e., sedation) in rats using the rat rotarod Treadmill. Motor coordination was evaluated at 0.5 h and 1 h post-dose.
The rats weighed between 240 to 280 grams on the day of study. Rats were not fasted prior to dosing.
Animals were trained to run on the treadmill for 2 consecutive days prior to the day of study. Animals were trained at a constant speed of 10 RPM and were given as many trials as necessary until they were able to stay on the rotarod for 300 seconds. Rats that were able to stay on the rod for 300 seconds were considered trained. On the day of study, animals were placed on the rotarod treadmill at 0, 30, and 60 minutes post dose. The treadmill was set at a constant speed of 4 RPM for 15 seconds, at this point the timer was started (T=0). After this 15 second period, the rotarod was set to accelerate from 4-40 RPM over a five minute period (using the built in program of the rotarod). The time (in seconds) that each animal stopped running and tripped the plate was recorded as the animal's run time. Animals that ran for 300 seconds were taken of the treadmill and 300 seconds was recorded as the run time.
The objective of this study was to evaluate the effect of 10, 30, 100, and 300 mg/kg of PEG-6-O-hydroxycodone on motor coordination in rats using the rotarod treadmill. All doses were administered orally and evaluated at 0.5 h and 1 h post-dose.

[4] = system: Male CD-1 mice; test: Assessment of CNS side effects in mice (Straub tail, muscle rigidity, pinna reflex)
Source text: The objective of this study was to provide an approximation of the side effect profile of various oligomeric conjugates for comparison to the parent compounds by measuring various gross behavioral and physiological signs following administration of compound.
Additional evaluations included muscle rigidity and pinna reflex.
Male CD-1 mice from Charles River Laboratories, Raleigh, N.C., weighing from 16-18 grams were maintained on a regular light/dark cycle (lights on 0600-1800) with ad libitum food and water for 1 week before commencement of testing. N=2 per treatment condition, i.e., separate mice for each dose of each test article, injection was performed via a 25-gauge ⅝-inch needle on a 1-mL tuberculin syringe for the s.c. route and a 22-gauge stainless steel mouse feeding tube for the p.o. route (Becton, Dickinson & Co., Franklin Lakes, N.J.). Each treatment condition was divided about evenly between two observers. […] Test article was administered (s.c. or p.o., and the mouse was placed immediately in the observation chamber). One-half, 1, 2, and 3 hours later, the animal was observed undisturbed for gross signs such as locomotor ataxia, tremor, hyperactivity, hypoactivity, convulsions, hindlimb splay, and Straub tail, and then removed and assessed for muscle tone (normal, rigid, flaccid), pinna reflex (presence or absence), righting reflex (intact or lost), and placing (whether or not the forepaws are extended when the mouse is placed near a surface).
Each of the tables show the number of animals responding at each dose, where N=2. […] A bolded value indicates the lowest dose at which a response was detected.

[5] = listed as mPEG6-O-hydroxycodone

T1 sequence (P35372 whole entry): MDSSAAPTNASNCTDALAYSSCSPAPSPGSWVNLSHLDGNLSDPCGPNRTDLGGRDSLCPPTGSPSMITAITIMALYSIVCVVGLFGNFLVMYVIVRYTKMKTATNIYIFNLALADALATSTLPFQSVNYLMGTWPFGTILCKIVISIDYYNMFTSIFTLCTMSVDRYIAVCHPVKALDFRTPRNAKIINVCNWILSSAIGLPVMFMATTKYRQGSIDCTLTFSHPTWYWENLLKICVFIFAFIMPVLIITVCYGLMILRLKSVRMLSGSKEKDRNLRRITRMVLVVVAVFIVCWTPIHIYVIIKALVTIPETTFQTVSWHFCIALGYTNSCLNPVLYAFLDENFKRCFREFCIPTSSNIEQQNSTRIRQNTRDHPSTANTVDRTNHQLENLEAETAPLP

COCCOCCOCCOCCOCCOCCOC1CCC2(O)C3Cc4ccc(OC)c5c4C2(CCN3C)C1O5 (stereo not drawn) [α-6-mPEG6-O-hydroxycodone, α-6-mPEG6-O-oxycodone]
progressive ratio break point ([1]; 1.0 mg/kg/injection): 21
reinforcing behavior, progressive ratio [1]: no reinforcing behavior was observed; also recorded: no reinforcing behaviour was exhibited
reinforcing behavior, progressive ratio [1, 5]: showed no reinforcing properties and behaved like saline
Emax ([2]; maximal response at the highest tested concentration, read-out: % max effect, mu opioid receptor): 102%
EC50 ([2]; read-out: EC50, mu opioid receptor): 12.5 µM
motor impairment, overall ([3]; 300 mg/kg oral, 0.5 h and 1 h post-dose): slight motor impairment
rotarod performance, overall ([3]; 10, 30, 100 mg/kg oral): failed to impair rotarod performance
sedation compared to oxycodone ([3]; listed as PEG-6-O-hydroxycodone): produces less sedation than the parent opioid
sedation compared to oxycodone [3, 5]: less sedation
time spent on the rotarod compared to saline control ([3]; initial study, 30 mg/kg oral, 0.5 h post-dose): showed a reduction in time spent on the rotarod
rotarod performance compared to saline control ([3]; initial study, 10, 100 or 300 mg/kg oral, 0.5 h and 1 h post-dose): did not exhibit impaired rotarod performance
time spent on rotarod compared to saline control ([3]; repeated study, 300 mg/kg oral, 0.5 h and 1 h post-dose): showed a reduction in time spent on rotarod
rotarod performance compared to saline control ([3]; repeated study, 10, 30 or 100 mg/kg oral, 0.5 h and 1 h post-dose): did not demonstrate impaired rotarod performance
Loss Pinna, fold difference relative to parent compound ([4]; PO, 1/2 responding): >>
Muscle Rigidity, fold difference relative to parent compound ([4]; PO, 1/2 responding): >100 fold
Straub Tail, fold difference relative to parent compound ([4]; PO, 1/2 responding): 100 fold
Loss Pinna, fold difference relative to parent compound ([4]; PO, 2/2 responding): >>
Muscle Rigidity, fold difference relative to parent compound ([4]; PO, 2/2 responding): >30 fold
Straub Tail, fold difference relative to parent compound ([4]; PO, 2/2 responding): >100 fold
Loss Pinna, fold difference relative to parent compound ([4]; SC, 1/2 responding): >30 fold
Muscle Rigidity, fold difference relative to parent compound ([4]; SC, 1/2 responding): 100 fold
Straub Tail, fold difference relative to parent compound ([4]; SC, 1/2 responding): 100 fold
Loss Pinna, fold difference relative to parent compound ([4]; SC, 2/2 responding): 33 fold
Muscle Rigidity, fold difference relative to parent compound ([4]; SC, 2/2 responding): 100 fold
Straub Tail, fold difference (reduction in CNS activity) relative to parent compound ([4]; SC, 2/2 responding): 100 fold
decrease in CNS activity relative to parent opioid ([4]; male, CD-1, mouse, in vivo, oral): 10-100 fold
mice showing the straub tail response ([4]; oral doses up to 100 mg/kg): none
Loss Pinna, number of animals responding (N=2) ([4]; oral, 1 mg/kg): 0
Muscle Rigidity, number of animals responding (N=2) ([4]; oral, 1 mg/kg): 0
Straub Tail Effect, number of animals responding (N=2) ([4]; oral, 1 mg/kg): 0
Loss Pinna, number of animals responding (N=2) ([4]; oral, 3 mg/kg): 0
Muscle Rigidity, number of animals responding (N=2) ([4]; oral, 3 mg/kg): 0
Straub Tail Effect, number of animals responding (N=2) ([4]; oral, 3 mg/kg): 0
Loss Pinna, number of animals responding (N=2) ([4]; oral, 10 mg/kg): 0
Muscle Rigidity, number of animals responding (N=2) ([4]; oral, 10 mg/kg): 0
Straub Tail Effect, number of animals responding (N=2) ([4]; oral, 10 mg/kg): 0
Loss Pinna, number of animals responding (N=2) ([4]; oral, 30 mg/kg): 0
Muscle Rigidity, number of animals responding (N=2) ([4]; oral, 30 mg/kg): 0
Straub Tail Effect, number of animals responding (N=2) ([4]; oral, 30 mg/kg): 0
Loss Pinna, number of animals responding (N=2) ([4]; oral, 100 mg/kg): 0
Muscle Rigidity, number of animals responding (N=2) ([4]; oral, 100 mg/kg): 1
Straub Tail Effect, number of animals responding (N=2) ([4]; oral, 100 mg/kg): 0
Loss Pinna, number of animals responding (N=2) ([4]; oral, 300 mg/kg): 0
Muscle Rigidity, number of animals responding (N=2) ([4]; oral, 300 mg/kg): 1
Straub Tail Effect, number of animals responding (N=2) ([4]; oral, 300 mg/kg): 1
lowest dose causing a detectable response in the straub test ([4]; oral, highest dose tested): 300 mg/kg
